From ChEMBL document CHEMBL2375265, “Novel oleanolic vinyl boronates: synthesis and antitumor activity” (Eur J Med Chem, 2013)
The source made the active and inactive calls. The rule behind the calls is not given here. Peptide text beside a SMILES is read from it. * marks the point of attachment. Cbz = O=C(OCc1ccccc1)*

How the values were obtained:
Jurkat [1] = assay: Inhibition of trypsin-like activity of proteasome isolated from human Jurkat cells using Boc-LRR-AMC as substrate assessed as residual activity at 100 uM incubated for 30 mins followed by substrate addition measured for 2 hrs by fluorescence assay relative to control; format: cell-free
Jurkat [2] = assay: Cell cycle arrest in human Jurkat cells assessed at 20 uM by propidium iodide staining-based FACS flow cytometric analysis; format: functional
SK-OV-3 = assay: Cytotoxicity against human SKOV3 cells assessed as growth inhibition after 48 hrs by MTT assay; format: functional, cell-based; conditions: SK-OV-3, 48 h
SW480 = assay: Cytotoxicity against human SW480 cells assessed as growth inhibition after 48 hrs by MTT assay; format: functional, cell-based; conditions: SW480, 48 h
Jurkat [3] = assay: Inhibition of trypsin-like activity of proteasome isolated from human Jurkat cells using Boc-LRR-AMC as substrate assessed as residual activity at 25 uM incubated for 30 mins followed by substrate addition measured for 2 hrs by fluorescence assay relative to control; format: cell-free
JIYOYE = assay: Cytotoxicity against human Jijoye cells assessed as growth inhibition after 48 hrs by MTT assay; format: functional, cell-based
Jurkat [4] = assay: Cytotoxicity against human Jurkat cells assessed as growth inhibition after 48 hrs by MTT assay; format: functional, cell-based
Jurkat [5] = assay: Inhibition of trypsin-like activity of proteasome isolated from human Jurkat cells using Boc-LRR-AMC as substrate assessed as residual activity at 50 uM incubated for 30 mins followed by substrate addition measured for 2 hrs by fluorescence assay relative to control; format: cell-free
Jurkat [6] = assay: Inhibition of chymotrypsin-like activity of proteasome isolated from human Jurkat cells using Suc-LLVY-AMC as substrate assessed as residual activity at 100 uM incubated for 30 mins followed by substrate addition measured for 2 hrs by fluorescence assay relative to control; format: cell-free
Jurkat [7] = assay: Inhibition of chymotrypsin-like activity of proteasome isolated from human Jurkat cells using Suc-LLVY-AMC as substrate assessed as residual activity at 50 uM incubated for 30 mins followed by substrate addition measured for 2 hrs by fluorescence assay relative to control; format: cell-free
[8] = Cytotoxicity against human fibroblasts assessed as growth inhibition after 48 hrs by MTT assay; format: cell-based; conditions: Fibroblast
K562 = assay: Cytotoxicity against human K562 cells assessed as growth inhibition after 48 hrs by MTT assay; format: functional, cell-based; conditions: K562, 48 h
HeLa = assay: Cytotoxicity against human HeLa cells assessed as growth inhibition after 48 hrs by MTT assay; format: functional, cell-based
Jurkat [9] = assay: Inhibition of chymotrypsin-like activity of proteasome isolated from human Jurkat cells using Suc-LLVY-AMC as substrate assessed as residual activity at 25 uM incubated for 30 mins followed by substrate addition measured for 2 hrs by fluorescence assay relative to control; format: cell-free
Jurkat [10] = assay: Induction of apoptosis in human Jurkat cells assessed as caspase 3/7 activation at 20 uM after overnight incubation by luminescence assay; format: functional, cell-based
Jurkat [11] = assay: Inhibition of chymotrypsin-like activity of proteasome in human Jurkat cells assessed as residual activity at 50 uM after 30 mins by fluorescence assay relative to control; format: cell-based
Jurkat [12] = assay: Inhibition of proteasome in human Jurkat cells assessed as accumulation of ubiquitinated protein at 50 uM by Western blot analysis; format: cell-based
Jurkat [13] = assay: Cell cycle arrest in human Jurkat cells assessed as accumulation at S phase at 20 uM by propidium iodide staining-based FACS flow cytometric analysis (reference value: 26.91%); format: functional
Jurkat [14] = assay: Cell cycle arrest in human Jurkat cells assessed as accumulation at G2/M phase at 20 uM by propidium iodide staining-based FACS flow cytometric analysis (reference value: 16.63%); format: functional
Jurkat [15] = assay: Cell cycle arrest in human Jurkat cells assessed as accumulation at sub G0/G1 phase at 20 uM by propidium iodide staining-based FACS flow cytometric analysis (reference value: 4.81%); format: functional
Jurkat [16] = assay: Induction of apoptosis in human Jurkat cells assessed as late apoptotic cells at 20 uM by propidium iodide/annexin V staining-based FACS flow cytometric analysis (reference value: 0.37%); format: functional
Jurkat [17] = assay: Cell cycle arrest in human Jurkat cells assessed as accumulation at G0/G1 phase at 20 uM by propidium iodide staining-based FACS flow cytometric analysis (reference value: 52.59%); format: functional
Jurkat [18] = assay: Induction of apoptosis in human Jurkat cells assessed as dead cells at 20 uM by propidium iodide/annexin V staining-based FACS flow cytometric analysis (reference value: 0.66%); format: functional
Jurkat [19] = assay: Induction of apoptosis in human Jurkat cells assessed as early apoptotic cells at 20 uM by propidium iodide/annexin V staining-based FACS flow cytometric analysis (reference value: 1.87%); format: functional
Jurkat [20] = assay: Inhibition of trypsin-like activity of proteasome in human Jurkat cells at 50 uM after 30 mins by fluorescence assay; format: cell-based
Jurkat [21] = assay: Inhibition of chymotrypsin-like activity of proteasome isolated from human Jurkat cells using Suc-LLVY-AMC as substrate assessed as residual activity at 10 uM incubated for 30 mins followed by substrate addition measured for 2 hrs by fluorescence assay relative to control; format: cell-free
Jurkat [22] = assay: Inhibition of trypsin-like activity of proteasome isolated from human Jurkat cells using Boc-LRR-AMC as substrate assessed as residual activity at 10 uM incubated for 30 mins followed by substrate addition measured for 2 hrs by fluorescence assay relative to control; format: cell-free

SMILES | IC50 (SK-OV-3) [µM] | IC50 (SW480) [µM] | IC50 (JIYOYE) [µM] | IC50 (Jurkat [4]) [µM] | IC50 [8] [µM] | IC50 (K562) [µM] | IC50 (HeLa) [µM] | other results
CC1(C)CC[C@]2(C(N)=O)CC[C@]3(C)C(=CC[C@@H]4[C@@]5(C)CC=C(B6OC(C)(C)C(C)(C)O6)C(C)(C)[C@@H]5CC[C@]43C)[C@@H]2C1 | > 50 | > 50 | 8.4 | 21.6 | > 50 | 8.3 | 34.7 | Activity (Jurkat [1]): 72.5%; Activity (Jurkat [2]): inactive; Activity (Jurkat [3]): 81.6%; Activity (Jurkat [5]): 77.9%; Activity (Jurkat [6]): 85.6%; Activity (Jurkat [7]): 92.4%; Activity (Jurkat [9]): 95.8%; Activity (Jurkat [10]): Active
COC(=O)[C@]12CCC(C)(C)C[C@H]1[C@H]1C(=O)C[C@@H]3[C@@]4(C)CC=C(B5OC(C)(C)C(C)(C)O5)C(C)(C)[C@@H]4CC[C@@]3(C)[C@]1(C)CC2 | > 50 | > 50 | > 50 | > 50 | > 50 | > 50 | > 50 | 
COC(=O)CNC(=O)[C@]12CCC(C)(C)C[C@H]1C1=CC[C@@H]3[C@@]4(C)CC=C(B5OC(C)(C)C(C)(C)O5)C(C)(C)[C@@H]4CC[C@@]3(C)[C@]1(C)CC2 | > 50 | > 50 | > 50 | > 50 | > 50 | > 50 | > 50 | 
C[C@H](NC(=O)[C@]12CCC(C)(C)C[C@H]1C1=CC[C@@H]3[C@@]4(C)CC=C(B5OC(C)(C)C(C)(C)O5)C(C)(C)[C@@H]4CC[C@@]3(C)[C@]1(C)CC2)C(=O)O | 31.2 | 28.7 | 19.4 | 21.4 | > 50 | 20.1 | 30.5 | Activity (Jurkat [11]): 37%; Activity (Jurkat [1]): 50.8%; inhibition (Jurkat [12]): Active; Activity (Jurkat [3]): 85.1%; Activity (Jurkat [13]): 14.24%; Activity (Jurkat [5]): 70.7%; Activity (Jurkat [14]): 12.19%; Activity (Jurkat [15]): 15.82%; Activity (Jurkat [6]): 47.2%; Activity (Jurkat [7]): 84.3%; Activity (Jurkat [16]): 13.67%; Activity (Jurkat [17]): 58.78%; Activity (Jurkat [18]): 16.33%; Activity (Jurkat [19]): 5.37%; inhibition (Jurkat [20]): Active; Activity (Jurkat [9]): 91.7%; Activity (Jurkat [10]): Active
COC(=O)[C@]12CCC(C)(C)C[C@H]1[C@H]1/C(=N\O)C[C@@H]3[C@@]4(C)CC=C(B5OC(C)(C)C(C)(C)O5)C(C)(C)[C@@H]4CC[C@@]3(C)[C@]1(C)CC2 | > 50 | > 50 | > 50 | > 50 | > 50 | > 50 | > 50 | 
COC(=O)[C@]12CCC(C)(C)C[C@H]1[C@H]1C(=O)C=C3[C@@]4(C)CC=C(B5OC(C)(C)C(C)(C)O5)C(C)(C)[C@@H]4CC[C@@]3(C)[C@]1(C)CC2 | > 50 | > 50 | > 50 | > 50 | > 50 | > 50 | > 50 | 
CC1(C)CC[C@]2(C(=O)O)CC[C@]3(C)C(=CC[C@@H]4[C@@]5(C)CC=C(B6OC(C)(C)C(C)(C)O6)C(C)(C)[C@@H]5CC[C@]43C)[C@@H]2C1 | > 50 | > 50 | > 50 | > 50 | > 50 | > 50 | > 50 | 
COC(=O)[C@H](C)NC(=O)[C@]12CCC(C)(C)C[C@H]1C1=CC[C@@H]3[C@@]4(C)CC=C(B5OC(C)(C)C(C)(C)O5)C(C)(C)[C@@H]4CC[C@@]3(C)[C@]1(C)CC2 | > 50 | > 50 | > 50 | > 50 | > 50 | > 50 | > 50 | 
CC1(C)CC[C@]2(C(=O)NCC(=O)O)CC[C@]3(C)C(=CC[C@@H]4[C@@]5(C)CC=C(B6OC(C)(C)C(C)(C)O6)C(C)(C)[C@@H]5CC[C@]43C)[C@@H]2C1 | 15.4 | 17.9 | 13.4 | 15.5 | > 50 | 18.2 | 28 | Activity (Jurkat [11]): 25%; Activity (Jurkat [1]): 51.4%; inhibition (Jurkat [12]): Active; Activity (Jurkat [3]): 85.3%; Activity (Jurkat [13]): 13.27%; Activity (Jurkat [5]): 84.1%; Activity (Jurkat [14]): 10.6%; Activity (Jurkat [15]): 13.79%; Activity (Jurkat [6]): 59.3%; Activity (Jurkat [7]): 64%; Activity (Jurkat [16]): 13.22%; Activity (Jurkat [17]): 82.2%; Activity (Jurkat [18]): 19.81%; Activity (Jurkat [19]): 3.73%; inhibition (Jurkat [20]): Active; Activity (Jurkat [9]): 83.6%; Activity (Jurkat [10]): Active
CC(C)C[C@@H](C=O)NC(=O)[C@H](CC(C)C)NC(=O)[C@H](CC(C)C)NC(=O)OCc1ccccc1 (Cbz-Leu-Leu-Leu-aldehyde) |  |  |  |  |  |  |  | Activity (Jurkat [21]): < 20%; Activity (Jurkat [22]): < 20%
COC(=O)[C@]12CCC(C)(C)C[C@H]1C1=CC[C@@H]3[C@@]4(C)CC=C(B5OC(C)(C)C(C)(C)O5)C(C)(C)[C@@H]4CC[C@@]3(C)[C@]1(C)CC2 | > 50 | > 50 | > 50 | > 50 | > 50 | > 50 | > 50 | 
CC1(C)CC[C@]2(C#N)CC[C@]3(C)C(=CC[C@@H]4[C@@]5(C)CC=C(B6OC(C)(C)C(C)(C)O6)C(C)(C)[C@@H]5CC[C@]43C)[C@@H]2C1 | > 50 | > 50 | > 50 | > 50 | > 50 | > 50 | > 50 | 
